Several values for one entry are separate records, joined by “and”; a condition that tells them apart may be missing. Equal entries are not always repeated. Where two headings read alike, the source gives them in different places. Numbered stars: 1 amine (or outer) side, 2 acyl side, 3 side chain; on linkers, the order of the positions; unused ones are H or OH. Square brackets hold non-standard residues; d marks the D form. Side chains are listed from the residue outwards. Peptide text beside a SMILES is read from it. * marks the point of attachment. C18 diacid = O=C(O)CCCCCCCCCCCCCCCCC(=O)*; γGlu = O=C(O)[C@H](CCC(=O)[*:2])N[*:1]; Aib = CC(C)(N)C(=O)O
Legend:
healthy human subjects [1] = assay: Mixed meal test (breakfast), Phase 1b trial; format: in vivo
Experimental: (§1) Reduction in appetite is reflected in the reduction in food intake measured by mixed meal test for breakfast (Table 11) and by measuring caloric intake at standard meals for lunch and dinner (Table 12).
The Mixed Meal Test (MMT) was performed at baseline, at 24 hours, after the first dosing (Day 2) and after the fourth dosing (Day 23). The meal consisted of a fixed nutrient content and the exact initial amount of nutrients were weighed by kitchen staff on a lab scale using the method of weighed intake. Consumption was supervised and leftovers were weighed and recorded as percentage of meal. Adjustment of leftovers on Day 2 will be performed for Day 23 and differences in weight will be calculated in carbohydrates.

healthy human subjects [2] = assay: Single ascending dose Phase 1a trial, adverse events; format: in vivo; details: 6 subjects
Experimental: A single ascending dose Phase 1a trial was conducted for Cpd. 18 investigating the safety of single subcutaneous injections of doses ranging from 0.02 mg to 7.5 mg in healthy human subjects.
The phase 1a study was a First in Human, Randomized, Double-blind, Placebo-controlled, Single Ascending Dose Trial assessing Safety, Tolerability, Pharmacokinetics and Pharmacodynamics of a Single Subcutaneous Dose of Cpd. 18 in Healthy human Subjects.
Eight cohorts (dose levels: 0.02, 0.07, 0.2, 0.6, 1.5, 3.0, 6.0 and 7.5 mg) were given in this first in human trial. Eight subjects were allocated to the following ascending dose levels: 0.02, 0.07, 0.2, 0.6, 1.5, 3.0, 6.0 and 7.5 mg.
Adverse events (AE) were captured by asking open ended and nonleading questions according to the following wording in the protocol:
• All events meeting the definition of an AE must be collected and reported from the first trial-related activity after the subject has signed the informed consent and until the end of the post-treatment follow-up period. At each contact with the site (Visit or telephone) the subject must be asked about AEs. All AEs, either observed by the Investigator or reported by the subject, must be recorded by the Investigator and evaluated. • The Investigator should record the diagnosis, if possible. If no diagnosis can be made the Investigator should record each sign and symptom as individual AEs. • All AEs must be recorded by the Investigator. One single Adverse Event Form must be used per AE from start to resolution. For Serious Adverse Events (SAE), the Serious Adverse Event Form must also be completed.”

healthy human subjects [3] = assay: Standard meal test (lunch and dinner), Phase 1b trial; format: in vivo
Excerpt: as §1
Pre-defined lunch and dinner meals were served at baseline (on Day -1) and after 4th dose (Day 23). Consumption was supervised and leftovers were weighed.

[4] = Plasma half-life in single ascending dose Phase 1a trial (LC-MS/MS); format: in vivo; details: human
Experimental: Blood sampling for determining Cpd 18 plasma concentrations were performed during the phase la study (outlined in Example 2) at scheduled timepoints. Concentration of Cpd 18 in plasma was measured using a validated LC-MS/MS assay. Pharmacokinetic (PK) endpoints for Cpd 18 were derived from the individual concentration profiles (with hour as time unit). For PK analysis, Cpd 18 concentrations were supplied by the analytical laboratory in nmol/L. Mean measured concentrations per dose level are shown in […].
For determination of λz a linear regression was performed using the logarithm to plasma Cpd. 18 concentration as the response variable and at least three valid concentration measurements of the terminal end period after Cmax. (The exact number of data points depends on the best goodness-of-fit). Cmax is not included in the calculation for λz as this point may be affected by absorption still taking place from the injection site.
The terminal elimination half-life of the plasma Cpd. 18 profile (t½) was calculated by the following formula: […]

[5] = Body weight in Phase 1b trial; format: in vivo, human; details: four once weekly s.c. doses, 1.0 mg to 3.5/6.0 mg, healthy subjects, FIG. 3

Compound: CC[C@H](C)[C@H](NC(=O)[C@H](Cc1ccccc1)NC(=O)[C@H](CC(=O)O)NC(=O)[C@H](CCCNC(=N)N)NC(=O)[C@H](C)NC(=O)[C@H](C)NC(=O)[C@H](CCC(N)=O)NC(=O)[C@H](CCCCNC(=O)CC[C@H](NC(=O)CCCCCCCCCCCCCCCCC(=O)O)C(=O)O)NC(=O)[C@H](CC(=O)O)NC(=O)[C@H](CC(C)C)NC(=O)[C@@H](NC(=O)[C@@H](NC(=O)[C@H](C)NC(=O)[C@H](CC(C)C)NC(=O)[C@H](CCC(=O)O)NC(=O)[C@H](CO)NC(=O)[C@@H](NC(=O)[C@H](Cc1ccccc1)NC(=O)[C@H](CO)NC(=O)CNC(=O)[C@H](CCC(=O)O)NC(=O)C(C)(C)NC(=O)[C@@H](N)Cc1c[nH]cn1)[C@@H](C)O)[C@@H](C)O)[C@@H](C)CC)C(=O)N[C@@H](C)C(=O)N[C@@H](Cc1c[nH]c2ccccc12)C(=O)N[C@@H](CC(C)C)C(=O)N[C@H](C(=O)N[C@@H](CCC(N)=O)C(=O)N[C@@H](Cc1c[nH]cn1)C(=O)N[C@@H](CCCCN)C(=O)N[C@H](C(=O)N[C@H](C(=O)N[C@@H](CC(=O)O)C(=O)O)[C@@H](C)O)[C@@H](C)CC)[C@@H](C)CC [Compound 18] (H-H[Aib]EGSFTSELATILDK([γGlu-C18 diacid])QAARDFIAWLIQHKITD-OH)
- Mean food consumption (healthy human subjects [1]; After 1st dose (Day 2), cohort 1.0 mg): 99.0%
- Mean food consumption (healthy human subjects [1]; After 1st dose (Day 2), cohort 2.25 mg): 95.4%
- Mean food consumption (healthy human subjects [1]; After 1st dose (Day 2), cohort 3.5 mg): 99.2% and 96.2%
- Mean food consumption (healthy human subjects [1]; After 1st dose (Day 2), cohort 3.5/6.0 mg): 87.5%
- Mean food consumption (healthy human subjects [1]; After 4th dose (Day 23), cohort 1.0 mg weekly): 98.6%
- Mean food consumption (healthy human subjects [1]; After 4th dose (Day 23), cohort 2.25 mg weekly): 95.8%
- Mean food consumption (healthy human subjects [1]; After 4th dose (Day 23), cohort 3.5 mg weekly): 93.2%
- Mean food consumption (healthy human subjects [1]; After 4th dose (Day 23), cohort 3.5/6.0 mg weekly): 62.5%
- Mean food consumption (healthy human subjects [1]; Baseline, cohort 1.0 mg): 99.2%
- Mean food consumption (healthy human subjects [1]; Baseline, cohort 2.25 mg): 100%
- Mean food consumption (healthy human subjects [1]; Baseline, cohort 3.5 mg): 100%
- Mean food consumption (healthy human subjects [1]; Baseline, cohort 3.5/6.0 mg): 95.8%
- Subjects experiencing decreased appetite (healthy human subjects [2]; single s.c. dose 0.02 mg): 0
- Subjects experiencing nausea (healthy human subjects [2]; single s.c. dose 0.02 mg): 2
- Subjects experiencing vomiting (healthy human subjects [2]; single s.c. dose 0.02 mg): 0
- Subjects experiencing decreased appetite (healthy human subjects [2]; single s.c. dose 0.07 mg): 1
- Subjects experiencing nausea (healthy human subjects [2]; single s.c. dose 0.07 mg): 0
- Subjects experiencing vomiting (healthy human subjects [2]; single s.c. dose 0.07 mg): 0
- Subjects experiencing decreased appetite (healthy human subjects [2]; single s.c. dose 0.2 mg): 0
- Subjects experiencing nausea (healthy human subjects [2]; single s.c. dose 0.2 mg): 1
- Subjects experiencing vomiting (healthy human subjects [2]; single s.c. dose 0.2 mg): 0
- Subjects experiencing decreased appetite (healthy human subjects [2]; single s.c. dose 0.6 mg): 0
- Subjects experiencing nausea (healthy human subjects [2]; single s.c. dose 0.6 mg): 0
- Subjects experiencing vomiting (healthy human subjects [2]; single s.c. dose 0.6 mg): 0
- Subjects experiencing decreased appetite (healthy human subjects [2]; single s.c. dose 1.5 mg): 3/6 and 3
- Subjects experiencing nausea (healthy human subjects [2]; single s.c. dose 1.5 mg): 0
- Subjects experiencing vomiting (healthy human subjects [2]; single s.c. dose 1.5 mg): 0
- Subjects experiencing decreased appetite (healthy human subjects [2]; single s.c. dose 3.0 mg): 2
- Subjects experiencing nausea (healthy human subjects [2]; single s.c. dose 3.0 mg): 3
- Subjects experiencing vomiting (healthy human subjects [2]; single s.c. dose 3.0 mg): 2
- Subjects experiencing decreased appetite (healthy human subjects [2]; single s.c. dose 6.0 mg): 3
- Subjects experiencing nausea (healthy human subjects [2]; single s.c. dose 6.0 mg): 4
- Subjects experiencing vomiting (healthy human subjects [2]; single s.c. dose 6.0 mg): 5
- Subjects experiencing nausea (healthy human subjects [2]; single s.c. dose 7.5 mg): 2
- Subjects experiencing vomiting (healthy human subjects [2]; single s.c. dose 7.5 mg): 2
- Mean food consumption (healthy human subjects [3]; Dinner, After 4th dose (Day 23), cohort 1.0 mg weekly): 682 kcal
- Mean food consumption (healthy human subjects [3]; Dinner, After 4th dose (Day 23), cohort 2.25 mg weekly): 585 kcal
- Mean food consumption (healthy human subjects [3]; Dinner, After 4th dose (Day 23), cohort 3.5 mg weekly): 594 kcal
- Mean food consumption (healthy human subjects [3]; Dinner, After 4th dose (Day 23), cohort 3.5/6.0 mg weekly): 423 kcal
- Mean food consumption (healthy human subjects [3]; Dinner, Baseline (Day -1), cohort 1.0 mg): 694 kcal
- Mean food consumption (healthy human subjects [3]; Dinner, Baseline (Day -1), cohort 2.25 mg): 679 kcal
- Mean food consumption (healthy human subjects [3]; Dinner, Baseline (Day -1), cohort 3.5 mg): 695 kcal
- Mean food consumption (healthy human subjects [3]; Dinner, Baseline (Day -1), cohort 3.5/6.0 mg): 694 kcal
- Mean food consumption (healthy human subjects [3]; Lunch, After 4th dose (Day 23), cohort 1.0 mg weekly): 705 kcal
- Mean food consumption (healthy human subjects [3]; Lunch, After 4th dose (Day 23), cohort 2.25 mg weekly): 649 kcal
- Mean food consumption (healthy human subjects [3]; Lunch, After 4th dose (Day 23), cohort 3.5 mg weekly): 647 kcal
- Mean food consumption (healthy human subjects [3]; Lunch, After 4th dose (Day 23), cohort 3.5/6.0 mg weekly): 403 kcal
- Mean food consumption (healthy human subjects [3]; Lunch, Baseline (Day -1), cohort 1.0 mg): 701 kcal
- Mean food consumption (healthy human subjects [3]; Lunch, Baseline (Day -1), cohort 2.25 mg): 638 kcal
- Mean food consumption (healthy human subjects [3]; Lunch, Baseline (Day -1), cohort 3.5 mg): 706 kcal
- Mean food consumption (healthy human subjects [3]; Lunch, Baseline (Day -1), cohort 3.5/6.0 mg): 671 kcal
- half-life ([4]; sc, single s.c. dose 0.02 mg, healthy subjects, N 6, read-out: t1/2 Mean (converted)): 140 h
- half-life ([4]; sc, single s.c. dose 0.07 mg, healthy subjects, N 6, read-out: t1/2 Mean (converted)): 126 h
- half-life ([4]; sc, single s.c. dose 0.2 mg, healthy subjects, N 6, read-out: t1/2 Mean (converted)): 129 h
- half-life ([4]; sc, single s.c. dose 0.6 mg, healthy subjects, N 6, read-out: t1/2 Mean (converted)): 110 h
- half-life ([4]; sc, single s.c. dose 1.5 mg, healthy subjects, N 6, read-out: t1/2 Mean (converted)): 120 h
- half-life ([4]; sc, single s.c. dose 3 mg, healthy subjects, N 6, read-out: t1/2 Mean (converted)): 120 h
- half-life ([4]; sc, single s.c. dose 6 mg, healthy subjects, N 6, read-out: t1/2 Mean (converted)): 112 h
- half-life ([4]; sc, single s.c. dose 7.5 mg, healthy subjects, N 6, read-out: t1/2 Mean (converted)): 135 h
- half-life ([4]; subcutaneous, following a single dose, across dose groups, read-out: calculated mean half-life): 110 to 135 h
- Body weight [5]: dose dependent reduction in body weight

Source: patent US20250073311A1, “DOSAGE REGIME” (ZEALAND PHARMA A/S, priority 2021, published 2025)
